Patent publication US6458802B1, “Antidepressant azaheterocyclymethyl derivatives of 2,3-dihydro-1,4-dioxino [2,3-f]quinoline” (Wyeth, priority 2001, dated 2002)
Where a name gives a salt, the structure may show the parent alone. Read-outs that look alike come from different tables or passages of the source.

Legend:
[1] = target: T1, cloned human 5HT1A receptors (Homo sapiens, UniProt P08908); experiment: 35S-GTPγS binding assay, antagonist activity at 5HT1A receptors; format: biochemical; settings: for 5HT1A Function (Imax) / Emax: maximum inhibitory effect in 35S-GTPγS binding versus 8-OH-DPAT; for IC50: 35S-GTPγS binding, reversal of the effects of the standard agonist 8-OH-DPAT, membranes with cloned human 5HT1A receptors, read-out: 5HT1A Function IC50; for Emax: read-out: 5HT1A Function (Imax)
T1 construct: expressed in transfected cells
T1 sequence (P08908 1-422): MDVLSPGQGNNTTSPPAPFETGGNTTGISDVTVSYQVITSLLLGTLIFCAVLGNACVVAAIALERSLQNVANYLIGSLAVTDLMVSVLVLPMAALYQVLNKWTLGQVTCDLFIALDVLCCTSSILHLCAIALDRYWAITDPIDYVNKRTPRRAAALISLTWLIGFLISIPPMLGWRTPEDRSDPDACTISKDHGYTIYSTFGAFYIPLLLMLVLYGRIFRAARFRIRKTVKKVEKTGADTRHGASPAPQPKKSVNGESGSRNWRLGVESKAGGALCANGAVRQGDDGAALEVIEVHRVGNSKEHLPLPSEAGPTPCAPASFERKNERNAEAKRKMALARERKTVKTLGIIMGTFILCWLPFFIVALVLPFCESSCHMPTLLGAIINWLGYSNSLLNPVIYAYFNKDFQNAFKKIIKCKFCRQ
Description: Antagonist activity at 5HT1A receptors was established by using a ^35S-GTPγS binding assay similar to that used by Lazareno and Birdsall (Br. J. Pharmacol. 109: 1120, 1993), in which the test compound's ability to affect the binding of 35S-GTPγS to membranes containing cloned human 5HT1A receptors was determined. Agonists produce an increase in binding whereas antagonists produce no increase but rather reverse the effects of the standard agonist 8-OH-DPAT. The test compound's maximum inhibitory effect is represented as the 1max, while its potency is defined by the IC50.

human 5HT1A receptors = target: T2, human 5HT1A receptors (Homo sapiens, UniProt P08908); experiment: [3H] 8-OH-DPAT displacement from the 5HT1A serotonin receptor (transfected CHO cells); format: binding
T2 construct: expressed in transfected cells; host or cells: CHO cells
T2 sequence (P08908 1-422): T1 sequence (P08908 1-422)
From the text: High affinity for the serotonin 5HT1A receptor was established by testing the claimed compound's ability to displace [^3H] 8-OH-DPAT (dipropylamino-tetralin) from the 5HT1A serotonin receptor following a modification of the procedure of Hall et al., J. Neurochem. 44, 1685 (1985) which utilizes CHO cells stably transfected with human 5HT1A receptors.

serotonin transporter = target: T3, serotonin transporter (Rattus norvegicus, UniProt P31652); experiment: 3H-paroxetine displacement, affinity for the serotonin transporter; format: binding
T3 construct: displace ^3H-paroxetine from male rat frontal cortical membranes; from tissue; host or cells: male rat frontal cortex membranes

[2] = displacement of [3H] 8-OH-DPAT, CHO cells stably transfected with human 5HT1A receptors, read-out: 5HT1A Receptor Affinity KI

T3 sequence (P31652 whole entry): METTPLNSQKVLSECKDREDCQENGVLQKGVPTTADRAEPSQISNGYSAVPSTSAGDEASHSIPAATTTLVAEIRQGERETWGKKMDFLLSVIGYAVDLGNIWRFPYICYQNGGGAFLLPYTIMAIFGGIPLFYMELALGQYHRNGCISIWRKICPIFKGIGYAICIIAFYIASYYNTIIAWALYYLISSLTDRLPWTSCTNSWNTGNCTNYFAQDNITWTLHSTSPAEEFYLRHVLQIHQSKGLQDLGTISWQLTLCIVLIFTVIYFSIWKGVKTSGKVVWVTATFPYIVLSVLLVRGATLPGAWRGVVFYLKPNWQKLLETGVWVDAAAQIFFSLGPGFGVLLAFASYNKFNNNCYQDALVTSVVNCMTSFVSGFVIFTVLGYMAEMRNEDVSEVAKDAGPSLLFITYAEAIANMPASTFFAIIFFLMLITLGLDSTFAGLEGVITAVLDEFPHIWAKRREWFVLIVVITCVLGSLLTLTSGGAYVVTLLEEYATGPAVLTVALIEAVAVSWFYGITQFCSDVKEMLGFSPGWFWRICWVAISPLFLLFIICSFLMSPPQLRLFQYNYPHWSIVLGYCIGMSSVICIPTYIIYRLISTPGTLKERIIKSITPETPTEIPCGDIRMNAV

Row | Compound | Ki (serotonin transporter) [nM] | Ki (human 5HT1A receptors) [nM] | IC50 [1] [nM] | Emax [1] [%] | melting point [°C] | also measured
1 | 2-({4-[(7-Ethyl-1H-indol-3-yl)methyl]piperidin-1-yl}methyl)-8-methyl-2,3-dihydro[1,4]dioxino[2,3-f]quinoline [Example 19] |  |  |  |  |  | 5HT1A Function (Imax) [1]: (100)
2 | NC(=O)c1ccc2[nH]cc(C3=CCN(C[C@H]4COc5ccc6ncccc6c5O4)CC3)c2c1 [Example 6, 3-[1-(2,3-Dihydro[1,4]dioxino[2,3-f]qiuinolin-2-ylmethyl)-1,2,3,6-tetrahydropyridin-4-yl]-1H-indole-5-carboxylic Acid Amide] | 3.54 |  |  |  |  | Ki (human 5HT1A receptors; [2]): 9.44 nM
3 | CCc1ccc2c3c(ccc2n1)OCC(CN1CC=C(c2c[nH]c4ccc(F)cc24)CC1)O3 (stereo not drawn) [Example 14, 8-Ethyl-2-[(4-(5-fluoro-1H-indol-3-yl)-3,6-dihydropyridin-1(2H)-yl)methyl]-2,3-dihydro[1,4]dioxino[2,3-f]quinoline] | 14 | 15.4 | 166 | 100 |  | 
4 | Nc1ccc2c3c(ccc2n1)OC[C@H](CN1CC=C(c2c[nH]c4ccc(F)cc24)CC1)O3 (as salt: fumarate) (hydrate or solvate) [Example 18, 2-[4-(5-Fluoro-1H-indol-3-yl)-3,6-dihydro-2H-pyridin-1-ylmethyl]-2,3-dihydro[1,4]dioxino[2,3-f]guinolin-8-ylamine] |  |  |  |  | 245 | 
5 | Cn1cc(C2=CCN(C[C@H]3COc4ccc5ncccc5c4O3)CC2)c2cc(F)ccc21 [Example 7, 2-[4-(5-Fluoro-1-methyl-1H-indol-3-yl)-3,6-dihydro-2H-pyridin-1-ylmethyl]-2,3-dihydro[1,4]dioxino[2,3-f]qiuinoline] | 8.5 | 14.7 | 1080 | 100 |  | 
6 | CCc1ccc2c3c(ccc2n1)OCC(CN1CC=C(c2c[nH]c4ccc(F)cc24)CC1)O3 (stereo not drawn) (as salt: fumarate) (hydrate or solvate) [Example 14, 8-Ethyl-2-[(4-(5-fluoro-1H-indol-3-yl)-3,6-dihydropyridin-1(2H)-yl)methyl]-2,3-dihydro[1,4]dioxino[2,3-f]quinoline] |  |  |  |  | 143 to 144 | 
7 | 2-({4-[(6-Chloro-1H-indol-3-yl)methyl]piperidin-1-yl}methyl)-8-methyl-2,3-dihydro[1,4]dioxino[2,3-f]quinoline [Example 20] |  |  |  |  |  | 5HT1A Function (Imax) [1]: (100)
8 | COc1cc2c(c3cccnc13)O[C@@H](CN1CC=C(c3c[nH]c4ccc(F)cc34)CC1)CO2 (as salt: fumarate) [Example 17, 2-[4-(5-Fluoro-1H-indol-3-yl)-3,6-dihydro-2H-pyridin-1-ylmethyl]-6-methoxy-2,3-dihydro[1,4]dioxino[2,3-f]qiuinoline] |  |  |  |  | 217 | 
9 | Fc1ccc2[nH]cc(CC3CCN(C[C@H]4COc5ccc6ncccc6c5O4)CC3)c2c1 [Example 3] |  |  | 120 | 90 |  | Ki (human 5HT1A receptors; [2]): 17.2 nM; Ki (serotonin transporter; displacement of 3H-paroxetine from male rat frontal cortical membranes, read-out: 5-HT Transporter Affinity KI): 1.2 nM
10 | COc1ccc2[nH]cc(C3=CCN(C[C@H]4COc5ccc6ncccc6c5O4)CC3)c2c1 [Example 1] | 54 | 9.29 | 322 | 100 |  | 
11 | Cc1ccc2[nH]cc(C3=CCN(CC4COc5ccc6nc(C)ccc6c5O4)CC3)c2c1 (stereo not drawn) [Example 22, 2-[4-(5-Methyl-1H-indol-3-yl)-3,6-dihydro-2H-pyridin-1-ylmethyl]-8-methyl-2,3-dihydro[1,4]dioxino[2,3-f]quinoline] | 59 | 34.7 | 503 | 100 |  | 
12 | C1=C(c2c[nH]c3ccccc23)CCN(C[C@H]2COc3ccc4ncccc4c3O2)C1 (hydrate or solvate) [Example 4, 2-[1,4-(1H-indol-3-yl)-3,6-dihydro-2H-pyridin-1-ylmethyl]-2,3-dihydro[1,4]dioxino[2,3-f]quinoline] |  |  |  |  | 217 | 
13 | Fc1ccc2[nH]cc(C3=CCN(CC4COc5cc(F)c6ncccc6c5O4)CC3)c2c1 (stereo not drawn) (as salt: fumarate) (hydrate or solvate) [Example 15, 6-Fluoro-2-[(4-(5-fluoro-1H-indol-3-yl)-3,6-dihydropyridin-1(2H)-yl)methyl]-2,3-dihydro[1,4]dioxino[2,3-f]quinoline] |  |  |  |  | 190 | 
14 | N#Cc1ccc2[nH]cc(C3=CCN(CC4COc5ccc6ncccc6c5O4)CC3)c2c1 (stereo not drawn) (as salt: fumarate) [Example 5, 3-[1-(2,3-Dihydro[1,4]dioxino[2,3-f]quinolin-2-ylmethyl)-1,2,3,6-tetrahydropyridin-4-yl]-1H-indole-5-carbonitrile] |  |  |  |  | 159 to 161 | 
15 | Fc1ccc2[nH]cc(C3=CCN(C[C@H]4COc5ccc6ncccc6c5O4)CC3)c2c1 (hydrate or solvate) [Example 2] |  |  |  |  | 184 | 
16 | Cc1ccc2c3c(ccc2n1)OCC(CN1CCC(c2c[nH]c4ccccc24)CC1)O3 (stereo not drawn) (as salt: fumarate) (hydrate or solvate) [Example 12, 2-[4-(1H-indol-3-yl)piperidin-1-ylmethyl]-8-methyl-2,3-dihydro[1,4]dioxino[2,3-f]quinoline] |  |  |  |  | 206 | 
17 | N#Cc1ccc2[nH]cc(C3=CCN(CC4COc5ccc6ncccc6c5O4)CC3)c2c1 (stereo not drawn) [Example 5, 3-[1-(2,3-Dihydro[1,4]dioxino[2,3-f]quinolin-2-ylmethyl)-1,2,3,6-tetrahydropyridin-4-yl]-1H-indole-5-carbonitrile] | 2.54 |  |  |  |  | Ki (human 5HT1A receptors; [2]): 19.3 nM
18 | Fc1ccc2[nH]cc(C3=CCN(CC4COc5cc(F)c6ncccc6c5O4)CC3)c2c1 (stereo not drawn) [Example 15, 6-Fluoro-2-[(4-(5-fluoro-1H-indol-3-yl)-3,6-dihydropyridin-1(2H)-yl)methyl]-2,3-dihydro[1,4]dioxino[2,3-f]quinoline] | 1.5 | 36.4 | 1030 | 100 |  | 
19 | COc1cc2c(c3cccnc13)O[C@@H](CN1CC=C(c3c[nH]c4ccc(F)cc34)CC1)CO2 [Example 17, 2-[4-(5-Fluoro-1H-indol-3-yl)-3,6-dihydro-2H-pyridin-1-ylmethyl]-6-methoxy-2,3-dihydro[1,4]dioxino[2,3-f]qiuinoline] | 4.74 |  | 1410 | 100 |  | Ki (human 5HT1A receptors; [2]): 317 nM
20 | Fc1ccc2[nH]cc(C3=CCN(C[C@H]4COc5ccc6ncccc6c5O4)CC3)c2c1 [Example 2] | 2.82 | 9.88 | 243 | 100 |  | 
21 | Cc1ccc2c3c(ccc2n1)OCC(CN1CC=C(c2c[nH]c4ccc(F)cc24)CC1)O3 (stereo not drawn) [Example 11, 2-[4-(5-Fluoro-1H-indol-3-yl)-3,6-dihydro-2H-pyridin-1-ylmethyl]-8-methyl-2,3-dihydro[1,4]dioxino[2,3-f]quinoline] | 5.51 | 13.2 | 120 | 100 |  | 
22 | Cc1ccc2c3c(ccc2n1)OCC(CN1CC=C(c2c[nH]c4cc(F)ccc24)CC1)O3 (stereo not drawn) [Example 10, 2-[4-(6-Fluoro-1H-indol-3-yl)-3,6-dihydro-2H-pyridin-1-ylmethyl]-8-methyl-2,3-dihydro[1,4]dioxino[2,3-f]quinoline] | 8 | 6.7 | 259 | 100 |  | 
23 | Nc1ccc2c3c(ccc2n1)OC[C@H](CN1CC=C(c2c[nH]c4ccc(F)cc24)CC1)O3 [Example 18, 2-[4-(5-Fluoro-1H-indol-3-yl)-3,6-dihydro-2H-pyridin-1-ylmethyl]-2,3-dihydro[1,4]dioxino[2,3-f]guinolin-8-ylamine] | 0.66 | 10.9 | 84.9 | 100 |  | 
24 | Cc1ccc2c3c(ccc2n1)OCC(CN1CCC(c2c[nH]c4ccccc24)CC1)O3 (stereo not drawn) [Example 12, 2-[4-(1H-indol-3-yl)piperidin-1-ylmethyl]-8-methyl-2,3-dihydro[1,4]dioxino[2,3-f]quinoline] | 2.39 | 9.98 | 85.7 | 100 |  | 
25 | C1=C(c2c[nH]c3ccccc23)CCN(C[C@H]2COc3ccc4ncccc4c3O2)C1 [Example 4, 2-[1,4-(1H-indol-3-yl)-3,6-dihydro-2H-pyridin-1-ylmethyl]-2,3-dihydro[1,4]dioxino[2,3-f]quinoline] | 3.38 | 4.84 | 226 | 87 |  | 
